Measurements from ChEMBL document CHEMBL6109167, “Novel PARP7 Inhibitors for Treating Cancer” (ACS Med Chem Lett, 2025).

Target: T1, Protein mono-ADP-ribosyltransferase TIPARP (Homo sapiens, UniProt Q7Z3E1)
T1 sequence (Q7Z3E1 whole entry): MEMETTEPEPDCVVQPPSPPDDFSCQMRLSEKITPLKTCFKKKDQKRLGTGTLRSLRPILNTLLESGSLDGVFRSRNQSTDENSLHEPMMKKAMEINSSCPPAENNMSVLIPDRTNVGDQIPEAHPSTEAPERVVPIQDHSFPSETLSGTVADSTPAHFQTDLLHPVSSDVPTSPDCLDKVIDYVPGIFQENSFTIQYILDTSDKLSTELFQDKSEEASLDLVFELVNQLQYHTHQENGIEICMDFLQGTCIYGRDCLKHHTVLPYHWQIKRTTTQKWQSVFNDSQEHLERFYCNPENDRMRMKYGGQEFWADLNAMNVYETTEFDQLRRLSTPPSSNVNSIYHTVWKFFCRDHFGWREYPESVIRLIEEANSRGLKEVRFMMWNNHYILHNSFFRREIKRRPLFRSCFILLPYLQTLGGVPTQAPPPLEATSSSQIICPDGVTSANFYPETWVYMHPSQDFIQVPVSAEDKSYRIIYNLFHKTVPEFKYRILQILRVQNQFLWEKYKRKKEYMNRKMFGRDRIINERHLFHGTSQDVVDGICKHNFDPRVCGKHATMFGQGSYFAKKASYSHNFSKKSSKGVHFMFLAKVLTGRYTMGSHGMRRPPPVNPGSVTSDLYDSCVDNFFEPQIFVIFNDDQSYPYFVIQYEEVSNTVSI
Assay: Inhibition of PARP7 in human NCI-H1373 cells assessed as increase in STAT1 phosphorylation at Tyr701 incubated for 48 hrs by LANCE Ultra sandwich assay
Assay type: cell-based

Going from `C[C@@H](C[C@H](F)Cn1ccc2cc(-c3ncc(C(F)F)c(N)n3)c(F)cc2c1=O)Oc1cn[nH]c(=O)c1C(F)(F)F` to `C[C@@H](C[C@H](F)Cn1cc(F)c2cc(-c3ncc(C(F)F)c(N)n3)c(F)cc2c1=O)Oc1cn[nH]c(=O)c1C(F)(F)F`, the EC50 falls from 0.786 nM to 0.42 nM (1.9-fold). The second is the more potent here.

`C[C@@H](C[C@@H](F)Cn1ccc2cc(-c3ncc(C(F)F)cn3)c(F)c(F)c2c1=O)Oc1cn[nH]c(=O)c1C(F)(F)F` and `C[C@@H](C[C@@H](F)Cn1ccc2cc(-c3ncc(Cl)cn3)c(F)c(F)c2c1=O)Oc1cn[nH]c(=O)c1C(F)(F)F` are within 1.5-fold of each other in EC50: 0.46 nM for the first, 0.62 nM for the second.

Compared with `C[C@@H](C[C@@H](F)Cn1ccc2cc(-c3ncc(C(C)(F)F)cn3)c(F)c(F)c2c1=O)Oc1cn[nH]c(=O)c1C(F)(F)F`, `COc1cnc(-c2cc3ccn(C[C@H](F)C[C@H](C)Oc4cn[nH]c(=O)c4C(F)(F)F)c(=O)c3c(F)c2F)nc1` is 1.8-fold lower in EC50: 0.667 nM for the first, 0.375 nM for the second. The second is the more potent here.
